Numbered stars: 1 amine (or outer) side, 2 acyl side, 3 side chain; on linkers, the order of the positions; unused ones are H or OH. Bridge positions count the residues as written; N and C are the ends. Square brackets hold non-standard residues; d marks the D form. Peptide text beside a SMILES is read from it. TATA = O=C(CC[*:1])N1CN(C(=O)CC[*:2])CN(C(=O)CC[*:3])C1; Cba = N[C@@H](CC1CCC1)C(=O)O; Pen = CC(C)(S)[C@H](N)C(=O)O A value given as a limit tells only on which side of the number the result lay.

The experiment has as its target T1, Fc-tagged human NKp46 (Homo sapiens, UniProt O76036).
T1 construct: purchased ACROBiosystems NC1-H5257
The experiment is described as follows: NKp46 SPR assay (Method 1 and/or Method 2). Type of experiment: binding. The settings on record: SPR Method 1 and/or Method 2, Table 3B. The method, then:
SPR experiments were performed to determine ka (M^−1s^−1), kd (s^−1), KD (nM) values (where measurable) of various bicyclic peptides to immobilised NKp46.
For analysis of peptide binding to NKp46, a Biacore 3000 instrument was used with a Cytiva Streptavidin chip. Capture of the protein (recombinant human NKp46-Fc fusion biotinylated via Avi-tag) was carried out at 25° C. with HBS-N (10 mM HEPES, 0.15 M NaCl, pH 7.4) as the running buffer and biotinylated NKp46 was captured to a level of 400-800 RU using a dilution of protein to 0.2 μM in buffer. Buffer was then changed to PBS/0.05% Tween 20 and a dilution series of the peptides was prepared in this buffer with a final DMSO concentration of 0.5% with a top peptide concentration of 100 nM-5000 nM and 6 further 2 or 3-fold dilutions. The SPR analysis was run at 25° C. and a flow rate of 50 μl/min with 60 seconds association and 200-400 seconds dissociation time. Data were corrected for DMSO excluded volume effects. All data were double-referenced for blank injections and reference surface using standard processing procedures and data processing and kinetic fitting were performed using Scrubber software, version 2.0c (BioLogic Software). Data were fitted using simple 1:1 binding model allowing for mass transport effects where appropriate.
Peptides were tested against Fc-tagged human NKp46 (ACROBiosystems, cat no. NC1-H5257).
For analysis of peptide binding, a Biacore 8k+ instrument was used with a CM5 chip (Cytiva). All experiments were carried out at 25° C. Anti-human IgG (Fc) antibody (Cytiva) was immobilized on all flow cells by standard amine coupling chemistry. The running buffer was HBS-N(Cytiva, 10 mM HEPES, 0.15 M NaCl, pH 7.4) and the flow rate was 10 μL/min. The carboxymethyl dextran surface was activated with a 1:1 ratio of 0.4 M 1-ethyl-3-(3-dimethylaminopropyl) carbodiimide hydrochloride (EDC)/0.1 M N-hydroxy succinimide (NHS) (Cytiva) for 420s. […] Residual activated groups were blocked with a 420 s injection of 1 M ethanolamine (pH 8.5). The final surface density was 3000-5000 RU. Fc-tagged human NKp46 was diluted to 0.1 μM in HBS-N and was captured on flow cell 2 only of the sensor chip at a flow rate of 10 μL/min to 500-1000 RU. The buffer was then changed to PBS-P+(Cytiva) supplemented with 2% DMSO. […] The flow rate was 50 μL/min with 60 s association and 400 s dissociation. Data were corrected for DMSO volume exclusion effects. All data were double-referenced against blank injections and reference surface response using standard processing procedures. Data processing and kinetic fitting was performed using Biacore Insight Evaluation Software with Extended Screening and Characterization Extension (Cytiva). Data were fitted using steady state affinity 1:1 binding model to determine KD. Data were fitted using kinetic 1:1 binding model to determine kinetic constants where appropriate.
On the technique in general: Surface plasmon resonance follows binding to a sensor surface in real time, without labels.

T1 sequence (O76036 22-304): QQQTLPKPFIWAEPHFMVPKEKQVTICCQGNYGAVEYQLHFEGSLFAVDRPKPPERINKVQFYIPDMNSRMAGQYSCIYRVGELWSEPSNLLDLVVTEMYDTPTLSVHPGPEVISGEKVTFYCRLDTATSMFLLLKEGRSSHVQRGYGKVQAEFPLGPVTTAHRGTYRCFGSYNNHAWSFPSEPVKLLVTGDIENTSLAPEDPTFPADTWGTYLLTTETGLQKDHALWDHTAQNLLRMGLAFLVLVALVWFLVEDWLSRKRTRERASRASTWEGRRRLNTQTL

As to `CSCC[C@@H]1NC(=O)[C@@H]2CSCCC(=O)N3CN(CN(C3)C(=O)CCSC[C@@H](C(=O)N[C@@H](C)C(N)=O)NC(=O)[C@H](C(C)C)NC(=O)[C@H](CCCCN)NC(=O)CNC(=O)[C@H]([C@@H](C)O)NC(=O)[C@H](CCC(=O)O)NC1=O)C(=O)CCSC[C@H](NC(=O)[C@H](C)N)C(=O)N[C@@H](CC(N)=O)C(=O)N[C@@H](CC(C)C)C(=O)N[C@@H](CCC(N)=O)C(=O)N[C@@H](C)C(=O)N1CCC[C@H]1C(=O)N2` [BCY18316, A-(SEQ ID NO: 78)-A] (H-ACNLQAPCMETGKVCA-NH2; linker 2-8-15 via TATA; C-terminus assumed), the affinity, expressed as Kd, was 1.51 µM.

As to `CC(=O)N[C@H]1CSCCC(=O)N2CN3CN(C2)C(=O)CCSC[C@H](NC(=O)[C@H](CC(C)C)NC(=O)[C@H](Cc2ccc(O)cc2)NC(=O)[C@H](CC(=O)O)NC(=O)[C@@H]2CCCN2C(=O)[C@H](CC2CCC2)NC(=O)[C@H](CCO)NC1=O)C(=O)N[C@H](C)C(=O)N[C@@H](CC(=O)O)C(=O)N[C@@H](CCC(=O)O)C(=O)N[C@@H](Cc1ccc(O)cc1)C(=O)N[C@H](C(N)=O)CSCCC3=O` [BCY18434, Ac-(SEQ ID NO: 137)], the Kd (commonly the free concentration of one partner at which half of the binding sites on the other are occupied at equilibrium, for simple one-to-one binding) was found to be 0.044 µM.

For the compound `CC[C@H](C)[C@@H]1NC(=O)CNC(=O)[C@H](Cc2c[nH]c3ccccc23)NC(=O)[C@H](CCC(N)=O)NC(=O)[C@@H]2CSCCC(=O)N3CN(CN(C3)C(=O)CCSC[C@H](N)C(=O)N[C@@H](CC(=O)O)C(=O)N[C@@H](CC(C)C)C(=O)N[C@@H]([C@@H](C)O)C(=O)N[C@@H]([C@@H](C)O)C(=O)N[C@@H](Cc3c[nH]cn3)C(=O)N[C@@H](CC(N)=O)C(=O)N2)C(=O)CCSC[C@@H](C(N)=O)NC1=O` [BCY18262, (SEQ ID NO: 11)], the Kd is 3.18 µM.

As for `CC[C@H](C)[C@@H]1NC(=O)CNC(=O)[C@H](Cc2c[nH]c3ccccc23)NC(=O)[C@H](C(C)C)NC(=O)[C@@H]2CSCCC(=O)N3CN(CN(C3)C(=O)CCSC[C@@H](C(=O)N[C@@H](C)C(N)=O)NC1=O)C(=O)CCSC[C@H](NC(=O)[C@H](C)N)C(=O)N[C@@H](CC(=O)O)C(=O)N[C@@H](CC(C)C)C(=O)N[C@@H]([C@@H](C)O)C(=O)N[C@@H]([C@@H](C)O)C(=O)N[C@@H](Cc1c[nH]cn1)C(=O)N[C@@H](CC(N)=O)C(=O)N2` [BCY18285, A-(SEQ ID NO: 128)-A] (H-ACDLTTHNCVWGICA-NH2; linker 2-9-14 via TATA; N-terminus and C-terminus assumed), the Kd was found to be 3.76 µM. This Kd and that of the compound before are within 1.5-fold of each other.

`CC(C)C[C@@H]1NC(=O)[C@@H](NC(=O)[C@H](C)N)CSCCC(=O)N2CN3CN(C2)C(=O)CCSC[C@H](NC(=O)[C@H](Cc2c[nH]cn2)NC(=O)[C@H](CC(=O)O)NC(=O)[C@H](Cc2c[nH]cn2)NC(=O)[C@H](CC(C)C)NC1=O)C(=O)N1CCC[C@H]1C(=O)N[C@@H](CC(N)=O)C(=O)N[C@@H]([C@@H](C)O)C(=O)N[C@@H](Cc1c[nH]cn1)C(=O)N1CCC[C@H]1C(=O)N[C@@H](CCCCN)C(=O)N[C@@H](CC(C)C)C(=O)N[C@H](C(=O)N[C@@H](C)C(N)=O)CSCCC3=O` [BCY15103, A-(SEQ ID NO: 5)-A] (H-ACLLHDHCPNTHPKLCA-NH2; linker 2-8-16 via TATA) displayed a Kd of 1.66 ± 0.544 µM.

In the case of `CC(C)C[C@@H]1NC(=O)[C@@H]2CSCCC(=O)N3CN(CN(C3)C(=O)CCSC[C@@H](C(=O)N[C@@H](C)C(N)=O)NC(=O)[C@H](C(C)C)NC(=O)[C@H](CCCCN)NC(=O)CNC(=O)[C@H]([C@@H](C)O)NC(=O)[C@H](Cc3c[nH]cn3)NC1=O)C(=O)CCSC[C@H](NC(=O)[C@H](C)N)C(=O)N[C@@H](CC(N)=O)C(=O)N[C@@H](CC(C)C)C(=O)N[C@@H](CCC(N)=O)C(=O)N[C@@H](CCC(N)=O)C(=O)N[C@@H](C)C(=O)N2` [BCY14454, A-(SEQ ID NO: 63)-A] (H-ACNLQQACLHTGKVCA-NH2; linker 2-8-15 via TATA; N-terminus assumed), the Kd was 2.76 µM.

Consider `CSCC[C@@H]1NC(=O)[C@@H]2CSCCC(=O)N3CN(CN(C3)C(=O)CCSC[C@@H](C(=O)N[C@@H](C)C(N)=O)NC(=O)[C@H](C(C)C)NC(=O)[C@H](CCCCN)NC(=O)CNC(=O)[C@H]([C@@H](C)O)NC(=O)[C@H](CCC(N)=O)NC1=O)C(=O)CCSC[C@H](NC(=O)[C@H](C)N)C(=O)N[C@@H](CC(N)=O)C(=O)N[C@@H](CC(C)C)C(=O)N[C@@H](CCC(N)=O)C(=O)N[C@@H](C)C(=O)N1CCC[C@H]1C(=O)N2` [BCY15098, A-(SEQ ID NO: 3)-A], for which binding was characterised by a dissociation constant (Kd) of 1.07 µM. This Kd is about 2.6-fold lower than that of the compound before.

Compound `CSCC[C@@H]1NC(=O)[C@@H]2CSCCC(=O)N3CN(CN(C3)C(=O)CCSC[C@@H](C(=O)N[C@@H](C)C(N)=O)NC(=O)[C@H](C(C)C)NC(=O)[C@H](CCCCN)NC(=O)CNC(=O)[C@H]([C@@H](C)O)NC(=O)[C@H](C)NC1=O)C(=O)CCSC[C@H](NC(=O)[C@H](C)N)C(=O)N[C@@H](CC(N)=O)C(=O)N[C@@H](CC(C)C)C(=O)N[C@@H](CCC(N)=O)C(=O)N[C@@H](C)C(=O)N1CCC[C@H]1C(=O)N2` [BCY18301, A-(SEQ ID NO: 65)-A] (H-ACNLQAPCMATGKVCA-NH2; linker 2-8-15 via TATA; C-terminus assumed) came in with a Kd of 4.03 µM. Against the preceding compound, the Kd is about 3.8-fold higher.

Consider `CSCC[C@@H]1NC(=O)[C@@H]2CSCCC(=O)N3CN(CN(C3)C(=O)CCSC[C@@H](C(=O)N[C@@H](C)C(N)=O)NC(=O)[C@H](C(C)C)NC(=O)[C@H](CCCCN)NC(=O)CNC(=O)[C@H]([C@@H](C)O)NC(=O)[C@H](C(C)C)NC1=O)C(=O)CCSC[C@H](NC(=O)[C@H](C)N)C(=O)N[C@@H](CC(N)=O)C(=O)N[C@@H](CC(C)C)C(=O)N[C@@H](CCC(N)=O)C(=O)N[C@@H](C)C(=O)N1CCC[C@H]1C(=O)N2` [BCY19702, A-(SEQ ID NO: 93)-A] (H-ACNLQAPCMVTGKVCA-NH2; linker 2-8-15 via TATA; N-terminus assumed), for which the Kd was 2.68 µM.

Take `CC(=O)N[C@H]1CSCCC(=O)N2CN3CN(C2)C(=O)CCSC(C)(C)[C@@H](C(N)=O)NC(=O)[C@H](Cc2ccc(O)cc2)NC(=O)[C@H](CCC(=O)O)NC(=O)[C@H](CC(=O)O)NC(=O)[C@@H](C)NC(=O)[C@H](CSCCC3=O)NC(=O)[C@H](CC(C)C)NC(=O)[C@H](Cc2ccc(O)cc2)NC(=O)[C@H](CC(=O)O)NC(=O)[C@@H]2CCCN2C(=O)[C@H](CC2CCC2)NC(=O)[C@H](Cc2ccc(O)cc2)NC1=O` [BCY19691, Ac-(SEQ ID NO: 155)] (Ac-CY[Cba]PDYLC[dA]DEY[Pen]-NH2; linker 1-8-13 via TATA): the Kd is > 0.5 µM.

`CC(C)C[C@@H]1NC(=O)[C@H](Cc2ccc(O)cc2)NC(=O)[C@H](CC(=O)O)NC(=O)[C@@H]2CCCN2C(=O)[C@H](CC2CCC2)NC(=O)[C@H](Cc2ccc(O)cc2)NC(=O)[C@@H](NC(=O)[C@H](C)N)CSCCC(=O)N2CN3CN(C2)C(=O)CCSC[C@H](NC1=O)C(=O)N[C@H](C)C(=O)N[C@@H](CC(=O)O)C(=O)N[C@@H](CCC(=O)O)C(=O)N[C@@H](Cc1ccc(O)cc1)C(=O)N[C@H](C(=O)N[C@@H](C)C(N)=O)CSCCC3=O` [BCY16132, A-(SEQ ID NO: 40)-A] (H-ACY[Cba]PDYLC[dA]DEYCA-NH2; linker 2-9-14 via TATA; N-terminus assumed): binding was put at a Kd of 0.0039 µM.

For the origin of these results see patent US20240108738A1, “BICYCLIC PEPTIDE LIGANDS SPECIFIC FOR NK CELLS” (Bicycle Tx Limited, priority 2021, published 2024).
